Source: ChEMBL document CHEMBL5046308, “Heterobifunctional Compounds as BRAF Degraders for Treating Cancer” (ACS Med Chem Lett, 2022)

biological target: Protein cereblon/Serine/threonine-protein kinase B-raf (Homo sapiens, UniProt P15056+Q96SW2, V600E); test: Protac activity at CRBN/BRAF V600E mutant (unknown origin) assessed as BRAF V600E degradation by HiBit cellular BRAF V600E degradation assay
Sequence (P15056 2-766 V600E limits assumed, stated change not applied): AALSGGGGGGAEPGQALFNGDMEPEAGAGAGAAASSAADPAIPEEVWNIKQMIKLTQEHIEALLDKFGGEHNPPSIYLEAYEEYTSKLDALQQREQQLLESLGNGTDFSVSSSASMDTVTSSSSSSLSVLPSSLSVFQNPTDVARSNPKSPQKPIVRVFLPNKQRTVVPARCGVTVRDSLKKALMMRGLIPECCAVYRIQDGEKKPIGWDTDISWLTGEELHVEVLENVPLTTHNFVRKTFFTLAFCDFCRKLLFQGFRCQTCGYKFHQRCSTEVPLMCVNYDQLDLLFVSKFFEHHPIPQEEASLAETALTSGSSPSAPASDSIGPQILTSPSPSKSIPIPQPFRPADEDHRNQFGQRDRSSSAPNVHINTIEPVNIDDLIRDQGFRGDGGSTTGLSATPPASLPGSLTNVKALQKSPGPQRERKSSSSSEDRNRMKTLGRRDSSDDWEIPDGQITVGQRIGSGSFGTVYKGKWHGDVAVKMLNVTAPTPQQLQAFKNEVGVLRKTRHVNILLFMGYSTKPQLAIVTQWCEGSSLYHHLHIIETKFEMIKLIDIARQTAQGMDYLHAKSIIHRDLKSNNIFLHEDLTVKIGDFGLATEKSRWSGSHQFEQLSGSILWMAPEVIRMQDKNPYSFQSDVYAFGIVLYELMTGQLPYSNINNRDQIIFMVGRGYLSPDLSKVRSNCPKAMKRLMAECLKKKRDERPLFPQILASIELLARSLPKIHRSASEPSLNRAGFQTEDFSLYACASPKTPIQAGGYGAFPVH
Sequence (Q96SW2 whole entry, stated change not applied): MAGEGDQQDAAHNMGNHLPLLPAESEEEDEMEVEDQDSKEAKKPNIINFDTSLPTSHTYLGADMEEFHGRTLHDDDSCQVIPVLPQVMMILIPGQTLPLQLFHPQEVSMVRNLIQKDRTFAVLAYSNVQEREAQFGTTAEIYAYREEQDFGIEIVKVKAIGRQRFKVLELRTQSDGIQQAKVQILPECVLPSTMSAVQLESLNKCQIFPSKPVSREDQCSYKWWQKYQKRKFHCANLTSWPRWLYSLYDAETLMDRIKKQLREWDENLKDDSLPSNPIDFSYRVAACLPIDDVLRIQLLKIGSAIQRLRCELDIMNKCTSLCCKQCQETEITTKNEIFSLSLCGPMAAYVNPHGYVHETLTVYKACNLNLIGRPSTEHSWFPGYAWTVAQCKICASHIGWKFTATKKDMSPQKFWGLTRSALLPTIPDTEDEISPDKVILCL

Going from CCN(C)S(=O)(=O)Nc1ccc(F)c(C(=O)c2c[nH]c3ncc(-c4ccc(N5CCN(C(=O)CCCOc6cccc7c6C(=O)N(C6CCC(=O)NC6=O)C7=O)CC5)nc4)cc23)c1F (stereo unspecified) to CCN(C)S(=O)(=O)Nc1ccc(F)c(C(=O)c2c[nH]c3ncc(-c4ccc(N5CCN(C(=O)CCCOc6cccc7c6C(=O)N(C6CCC(=O)NC6=O)C7=O)CC5)cc4)cc23)c1F (stereo unspecified), the DC50 rises from 10 nM to 16 nM (1.6-fold).

Going from CCN(C)S(=O)(=O)Nc1ccc(F)c(C(=O)c2c[nH]c3ncc(-c4ccc(N5CCN(C(=O)[C@H]6C[C@H](Nc7cccc8c7C(=O)N(C7CCC(=O)NC7=O)C8=O)C6)CC5)nc4)cc23)c1F (stereo partly specified) to CCN(C)S(=O)(=O)Nc1ccc(F)c(C(=O)c2c[nH]c3ncc(-c4ccc(N5CCN(C(=O)[C@H]6C[C@H](Nc7cccc8c7C(=O)N(C7CCC(=O)NC7=O)C8=O)C6)CC5)cc4)cc23)c1F (stereo partly specified), the DC50 rises from 10 nM to 23 nM (2.3-fold).

CCN(C)S(=O)(=O)Nc1ccc(F)c(C(=O)c2c[nH]c3ncc(-c4ccc(N5CCN(C(=O)CCCNc6cccc7c6C(=O)N(C6CCC(=O)NC6=O)C7=O)CC5)nc4)cc23)c1F (stereo unspecified) and CCN(C)S(=O)(=O)Nc1ccc(F)c(C(=O)c2c[nH]c3ncc(-c4cnc(N5CCN(C(=O)CCCOc6cccc7c6C(=O)N(C6CCC(=O)NC6=O)C7=O)CC5)nc4)cc23)c1F (stereo unspecified) are within 1.5-fold of each other in DC50: 26 nM for the first, 20 nM for the second.
